According to patent US20180153995A1, “USE OF ANTIMICROBIAL POLYMERS FOR RE-SENSITIZATION OF MICROORGANISMS UPON EMERGENCE OF RESISTANCE TO ANTI-MICROBIAL AGENTS” (Technion Research & Development Foundation Limited, priority 2008, published 2018):
Values joined by “and” are separate entries in the source; they are usually repeats but may differ in a detail not shown here. Equal values may be shown once. Read-outs that look alike come from different tables or passages of the source.

What was measured:
[1] = tested on: MRSA 15903; experiment: microbe, parasite or virus in culture; assay type: cell-based, Staphylococcus aureus
Summary of the method: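 Two-agent combinations tested against MRSA 15903; FIC index = A/MICA + B/MICB, using MICs in combination versus alone. Below 0.5 read as clear re-sensitizing, 0.5–4 marginal or null, above 4 antagonism.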

[2] = tested on: S. maltophila 748; experiment: Antibiotic MIC by microdilution with or without sub-MIC polymer; assay type: cell-based, Stenotrophomonas maltophila
[3] = tested on: E. coli 14384; experiment: as above; assay type: cell-based, Escherichia coli
Summary of the method: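 Inoculum 10^5 bacteria/ml; 2-fold serial antibiotic dilutions ± […]; 24 h, 37° C; growth by OD 620 nm vs standards.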

[4] = tested on: S. aureus 15819; experiment: as above; assay type: cell-based, Staphylococcus aureus; conditions: S. aureus 15819
[5] = tested on: S. aureus 17314; experiment: as above; assay type: cell-based, Staphylococcus aureus
[6] = tested on: E. coli K-12 resistant wild type; assay type: cell-based, Escherichia coli; conditions: E. coli AG100 (w.t.)
[7] = +¼ MIC (1.6 μM) C12K(KNC12K)3NH2
[8] = +½ MIC (3.12 μM) C12K(KNC12K)3NH2
[9] = +⅓ MIC (2.1 μM) C12K(KNC12K)3NH2

## Cc1onc(-c2ccccc2)c1C(=O)N[C@@H]1C(=O)N2[C@@H]1SC(C)(C)[C@@H]2C(=O)O [Oxacillin, oxacillin]
[1]; MRSA 15903, with C12K(KNC10K)3NH2 (SEQ ID NO: 10) at ⅓ of its MIC
  MIC, ⅓ + MIC OAK: 16 to 64 µg/mL
[1]; S. aureus CI-15903, +polymer (¼ MIC) C12(5-ene)KKNC12KNH2
  MIC: 64 µg/mL
[1]; S. aureus CI-15903, +polymer (½ MIC) C12(5-ene)KKNC12KNH2
  MIC: 0.25 µg/mL
[1]; S. aureus CI-15903, +polymer (⅓ MIC) C12(5-ene)KKNC12KNH2
  MIC: 4 µg/mL
[1]; S. aureus CI-15903, alone
  MIC: 256 µg/mL
[1]; Staphylococcus aureus, MRSA, 24 h
  MIC: 256 µg/mL
[1]; Staphylococcus aureus, MRSA, read-out: MIC of oxacillin
  MIC: 256 µg/mL
[1]; Staphylococcus aureus, MRSA, read-out: MIC of oxacillin, MRSA 15903, + ½ MIC NC12(KNC12K)2NH2
  MIC: 0.4 µM
[1]; Staphylococcus aureus, MRSA, read-out: MIC of oxacillin, MRSA 15903, + ½ MIC NC12(KNC12K)2NH2 (text)
  MIC: 0.17 µg/mL
[1]; Staphylococcus aureus, MRSA, read-out: MIC of oxacillin, MRSA 15903, + ⅓ MIC NC12(KNC12K)2NH2
  MIC: 0.8 µM
[1]; Staphylococcus aureus, MRSA, read-out: MIC of oxacillin, MRSA 15903, + ⅓ MIC NC12(KNC12K)2NH2 (text)
  MIC: 0.34 µg/mL
[1]; Staphylococcus aureus, MRSA, read-out: MIC of oxacillin, MRSA 15903, oxacillin alone
  MIC: 576 µM
[2]; [7]
  Antibiotic MIC: 512 µg/mL
[2]; [8]
  Antibiotic MIC: 256 µg/mL
[2]; [9]
  Antibiotic MIC: 512 µg/mL
[2]; no polymer (None), Table 13
  Antibiotic MIC: 512 µg/mL
[3]
  Antibiotic MIC: 256 µg/mL and >512 µg/mL
[3]; E. coli 14384, +½ MIC C12K(NC8K)5NH2
  Antibiotic MIC: 256 to 512 µg/mL
[3]; E. coli 14384, antibiotic alone (Table 15)
  Antibiotic MIC, None: >512 µg/mL
[3]; E. coli 14384, no polymer (None), Table 9
  Antibiotic MIC: >512 µg/mL
[3]; E. coli 14384, no polymer (None), Table 14
  Antibiotic MIC: >512 µg/mL
[3]; E. coli 14384, polymer at ¼ of its MIC
  Antibiotic MIC in presence of C12K(NC8K)7NH2 (SEQ ID NO: 4), +¼ MIC: >512 µg/mL
[3]; E. coli 14384, polymer at ½ of its MIC
  Antibiotic MIC in presence of C12K(NC8K)7NH2 (SEQ ID NO: 4), +½ MIC: >512 µg/mL
[3]; E. coli 14384, polymer at ⅓ of its MIC
  Antibiotic MIC in presence of C12K(NC8K)7NH2 (SEQ ID NO: 4), +⅓ MIC: >512 µg/mL
[4]; +¼ MIC (1.6 μM) C12(5-ene)KKNC12KNH2
  Antibiotic MIC: 2 µg/mL
[4]; [7]
  Antibiotic MIC: 4 µg/mL
[4]; +¼ MIC (1.6 μM) C12KKNC12KNH2
  Antibiotic MIC: 8 µg/mL
[4]; +½ MIC (3.12 μM) C12(5-ene)KKNC12KNH2
  Antibiotic MIC: 1 µg/mL
[4]; [8]
  Antibiotic MIC: 0.5 to 1 µg/mL
[4]; +½ MIC (3.12 μM) C12KKNC12KNH2
  Antibiotic MIC: 2 µg/mL
[4]; +⅓ MIC (2.1 μM) C12(5-ene)KKNC12KNH2
  Antibiotic MIC: 2 µg/mL
[4]; [9]
  Antibiotic MIC: 2 µg/mL
[4]; +⅓ MIC (2.1 μM) C12KKNC12KNH2
  Antibiotic MIC: 8 µg/mL
[4]; no polymer (None), Table 8
  Antibiotic MIC: 4 µg/mL
[4]; no polymer (None), Table 11
  Antibiotic MIC: 8 µg/mL
[4]; no polymer (None), Table 13
  Antibiotic MIC: 8 µg/mL
[5]
  Antibiotic MIC: 0.125 to 0.25 µg/mL
[5]; S. aureus 17314, +¼ MIC (1.6 μM) C12K(KNC12K)2NH2
  Antibiotic MIC: 0.125 to 0.25 µg/mL
[5]; S. aureus 17314, +¼ MIC (1.6 μM) C12KKNC12KNH2
  Antibiotic MIC: 0.25 µg/mL
[5]; S. aureus 17314, +¼ MIC (1.6 μM) C16(9-ene)KKNC12KNH2
  Antibiotic MIC: 0.25 µg/mL
[5]; S. aureus 17314, +½ MIC (3.12 μM) C12K(KNC12K)2NH2
  Antibiotic MIC: 0.125 to 0.25 µg/mL
[5]; S. aureus 17314, +½ MIC (3.12 μM) C12KKNC12KNH2
  Antibiotic MIC: 0.25 µg/mL
[5]; S. aureus 17314, +½ MIC (3.12 μM) C16(9-ene)KKNC12KNH2
  Antibiotic MIC: 0.06 µg/mL
[5]; S. aureus 17314, +⅓ MIC (2.1 μM) C12K(KNC12K)2NH2
  Antibiotic MIC: 0.125 to 0.25 µg/mL
[5]; S. aureus 17314, +⅓ MIC (2.1 μM) C12KKNC12KNH2
  Antibiotic MIC: 0.25 µg/mL
[5]; S. aureus 17314, +⅓ MIC (2.1 μM) C16(9-ene)KKNC12KNH2
  Antibiotic MIC: 0.25 µg/mL
[5]; S. aureus 17314, no polymer (None), Table 9
  Antibiotic MIC: 0.25 µg/mL
[5]; S. aureus 17314, no polymer (None), Table 10
  Antibiotic MIC: 0.25 to 0.5 µg/mL
[5]; S. aureus 17314, no polymer (None), Table 11
  Antibiotic MIC: 0.25 µg/mL
[5]; S. aureus 17314, no polymer (None), Table 12
  Antibiotic MIC: 0.25 µg/mL
[6]; antibiotic alone (Table 16)
  Antibiotic MIC, None: 512 µg/mL
[6]; antibiotic alone (Table 17)
  Antibiotic MIC, None: 512 µg/mL
[6]; polymer at ½ of its MIC (Table 16)
  Antibiotic MIC in presence of C12K(NC8K)7NH2 (SEQ ID NO: 4), +½ MIC: 32 to 64 µg/mL
[6]; the OAK at ¼ of its MIC (Table 17)
  Antibiotic MIC in presence of the OAK, +¼ MIC: 256 µg/mL
[6]; the OAK at ½ of its MIC (Table 17)
  Antibiotic MIC in presence of the OAK, +½ MIC: 32 to 64 µg/mL
